Measured values published in US20260101897A1, “PLANT ENVIRONMENTAL STRESS TOLERANCE IMPROVEMENT AGENT AND ENVIRONMENTAL STRESS TOLERANCE IMPROVEMENT METHOD” (priority 2022, published 2026).

Tests used:
Assay type in all cases: in vivo
radish (Akamaru Hatsuka) = experiment: Evaluation Example 7: tolerance to drying stress, leaf mortality; details: for Leaf mortality rate: test compound 0.5 mM (50 mL), water supply stopped 7 days twice; for Leaf mortality rate / Environmental stress suppressing rate: drying stress Yes; for Environmental stress suppressing rate: test compound 0.5 mM
Description: EGT and GB were commercially available products, and pure water was used as a solvent. In a plastic pot having a diameter of 135 mm and a height of 110 mm, 1 kg of granular soil (Kumiai horticultural soil) was placed, and 5 individual radish (Akamaru Hatsuka) was seeded per pot. They were managed in a greenhouse set at room temperature of 25° C. EGT in an amount of 50 mL or GB in an amount of 50 mL was added on the 22nd day after seeding, and water supply was stopped for 7 days. After cultivation under water supply for 7 days, drying stress was applied by stopping water supply for 7 days again. The dead leaves of radish were counted after the drying stress was applied, and the leaf mortality rate was evaluated as an index of physiological disorder. The leaf mortality rate and the environmental stress suppressing rate were calculated according to the following formulas. [formula] [formula]

[1] = tested on: Arabidopsis thaliana (Col-0); experiment: Evaluation Example 4: tolerance to high temperature stress, plant mortality; details: for Environmental stress suppressing rate: high temperature stress Yes
Description: EGT (Example 5 and Comparative Example 13) or GB (Comparative Example 12 and Comparative Example 14) was prepared so as to have a concentration shown in Table 4 below. EGT and GB were commercially available products, and pure water was used as a solvent.
In a plastic pot having a diameter of 60 mm and a height of 55 mm, 80 mL of culture soil (manufactured by Hanagokoro Co., Ltd.) was put, and one individual Arabidopsis thaliana (Col-0) was seeded per pot. Plastic deep dishes each having a diameter of 160 mm and a height of 28 mm were prepared, and four pots were respectively placed therein.
They were located in a growth chamber set at room temperature of 22° C., and the light period was 16 hours and the dark period was 8 hours. The light conditions were set such that the light intensity was 5000 lx in the central part under irradiation with the fluorescent lamp. Water supply was conducted from the bottom, and the water level was set at about 5 mm. On the 41st day after seeding, 50 mL of EGT or 50 mL of GB was added, and one day after that, high temperature stress was applied by exposure to an environment of 42° C. for 3 hours.
The surviving plants were counted 12 days after the high temperature stress was applied, and the plant mortality rate was evaluated as an index of physiological disorder. The mortality rate and the environmental stress suppressing rate were calculated according to the following formulas.

arugula = experiment: Evaluation Example 15: tolerance to low temperature stress, leaf wilting; details: for Environmental stress suppressing rate: low temperature stress Yes
Description: EGT (Examples 19 and 20, Comparative Examples 66 and 67) or GB (Comparative Example 64, 65, 68 and 69) was prepared so as to have a concentration shown in Table 15 below. EGT and GB were commercially available products, and pure water was used as a solvent.
(§1) 1 mL of pure water was added to 3.5-cm petri dishes on which filter paper was placed, and 5 arugula seeds were seeded per petri dish. They were located in a growth chamber set at room temperature of 22° C., and the light period was 16 hours and the dark period was 8 hours. The light conditions were set such that the light intensity was 5000 lx in the central part under irradiation with the fluorescent lamp.
On the 4th day after seeding, pure water in the petri dish was removed, and then 1 mL of EGT or 1 mL of GB was added, and 24 hours after that, low temperature stress was applied by exposure to an environment of 4° C. for 48 hours.
The number of wilted arugula leaves was evaluated 3 days after the low temperature stress was applied. The leaf wilting rate and the environmental stress suppressing rate were calculated according to the following formulas.

broccoli = experiment: Evaluation Example 13: tolerance to freezing stress, plant mortality; details: for Environmental stress suppressing rate: freezing stress Yes
Description: EGT (Example 17, Comparative Example 55) or GB (Comparative Examples 54 and 56) was prepared so as to have the concentration shown in Table 13 below. EGT and GB were commercially available products, and pure water was used as a solvent.
as §1, with “5 mL” for “1 mL”, “to 9-cm” for “to 3.5-cm”, “and 10 broccoli” for “and 5 arugula”
On the 6th day after seeding, pure water in the petri dish was removed, and then, 5 mL of EGT or 5 mL of GB was added to the petri dish, and freezing stress was applied by, 14 days after the addition, a first exposure to an environment of −20° C. for 20 minutes, and, 1 day after the first exposure, a second exposure to an environment of −20° C. for 20 minutes.
The surviving plants were counted 24 hours after the freezing stress was applied, and the mortality rate of the plants was evaluated as an index of physiological disorder. The mortality rate and the environmental stress suppressing rate were calculated according to the following formulas.

[2] = tested on: Arabidopsis thaliana (Col-0); experiment: Evaluation Example 1: tolerance to salt stress, plant mortality
Description: L-(+)-ergothioneine (Examples 1 and 2 and Comparative Example 3) and glycine betaine (Comparative Examples 1 and 2 and Comparative Example 4) were prepared so as to have the concentrations shown in Table 1 below. EGT and GB were commercially available products, and pure water was used as a solvent.
Three individuals of Arabidopsis thaliana (Col-0) were seeded per well in a 24-well cell culture plate. Mixed salts for Murashige and Skoog medium (Fujifilm Wako Pure Chemical Industries, Ltd.) to which 1 wt. % of sucrose and 0.1 wt. % of agar-agar powder were added was used as a liquid medium, and the liquid medium was placed in a 2 mL per well.
They were located in a growth chamber set at room temperature of 22° C., and the light period was 16 hours and the dark period was 8 hours. The light conditions were set such that the light intensity was 5000 lx in the central part under irradiation with the fluorescent lamp. On the fourth day after seeding, EGT or GB was added so as to give a predetermined concentration, and 24 hours later, an aqueous sodium chloride solution was added so as to give a final 100 mM concentration, thereby giving a salt stress.
The number of surviving plants was counted on the 10th day after seeding, and the plant mortality rate was evaluated as an index of physiological disorder. The mortality rate and the environmental stress suppressing rate were calculated according to the following formulas.

[3] = test compound 0.5 mM (50 mL), high temperature stress Yes (42° C. for 3 hours), 12 days after stress
[4] = test compound 0.5 mM, high temperature stress No
[5] = test compound 0.1 mM (1 mL), low temperature stress Yes (4° C. for 48 hours), 3 days after stress
[6] = test compound 0.1 mM, low temperature stress No
[7] = test compound 1 mM (1 mL), low temperature stress Yes (4° C. for 48 hours), 3 days after stress
[8] = test compound 1 mM, low temperature stress No
[9] = test compound 0.1 mM (5 mL), freezing stress Yes (−20° C. for 20 minutes, twice), 24 hours after stress
[10] = test compound 0.1 mM, freezing stress No
[11] = test compound 0.1 mM, salt stress Yes (100 mM sodium chloride)
[12] = test compound 0.1 mM, salt stress Yes (100 mM sodium chloride), 10th day after seeding
[13] = test compound 1 mM, salt stress No
[14] = test compound 1 mM, salt stress Yes (100 mM sodium chloride)
[15] = test compound 1 mM, salt stress Yes (100 mM sodium chloride), 10th day after seeding

| SMILES | Leaf mortality rate (radish (Akamaru Hatsuka)) [%] | Environmental stress suppressing rate (radish (Akamaru Hatsuka)) [%] | Mortality rate [1, 3] [%] | Mortality rate [1, 4] [%] | Environmental stress suppressing rate ([1]; test compound 0.5 mM) [%] | Leaf wilting rate (arugula; [5]) [%] | Leaf wilting rate (arugula; [6]) [%] | Environmental stress suppressing rate (arugula; test compound 0.1 mM) [%] | Leaf wilting rate (arugula; [7]) [%] | Leaf wilting rate (arugula; [8]) [%] | Environmental stress suppressing rate (arugula; test compound 1 mM) [%] | Mortality rate (broccoli; [9]) [%] | Mortality rate (broccoli; [10]) [%] | Environmental stress suppressing rate (broccoli; test compound 0.1 mM) [%] | Environmental stress suppressing rate [2, 11] [%] | Mortality rate [2, 12] [%] | Mortality rate [2, 13] [%] | Environmental stress suppressing rate [2, 14] [%] | Mortality rate [2, 15] [%] | also measured |
| --- | --- | --- | --- | --- | --- | --- | --- | --- | --- | --- | --- | --- | --- | --- | --- | --- | --- | --- | --- | --- |
| C[N+](C)(C)[C@@H](Cc1c[nH]c(=S)[nH]1)C(=O)[O-] [EGT, L-(+)-ergothioneine] | 17 | 71 | 25 | 0 | 67 | 0 | 0 | 100 | 0 | 0 | 100 | 38 | 0 | 56 | 48 | 39 | 0 | 81 | 14 | – |
| C[N+](C)(C)CC(=O)[O-] [GB, glycine betaine, reference compound] | 73 | 0 | 75 | 0 | 0 | 60 | 0 | 10 | 60 | 0 | 10 | 100 | 0 | 0 | 0 | 79 | 0 | 0 | 75 | mortality rate due to drying stress, result in words (radish (Akamaru Hatsuka); 0.5 mM, drying stress): not suppressed; mortality rate due to high temperature stress, result in words ([1]; 0.5 mM, high temperature stress): not suppressed; leaf wilting rate due to low temperature stress, result in words (arugula; GB 1 mM and 0.1 mM, low temperature stress): hardly suppressed; mortality rate due to freezing stress, result in words (broccoli; 0.1 mM, freezing stress): not suppressed; death due to salt stress, result in words ([2]; GB treatment 1 mM and 0.1 mM, salt stress): not suppressed |
